Usually IC50 stands for the midpoint of a concentration-inhibition curve. Lower therefore signals inhibition by little substance.

Here are results for 61 compounds from ChEMBL document CHEMBL1133593 (J Med Chem, 2000).

The test concerns the target Phosphoglycerate kinase (Trypanosoma brucei). Kind of test: evaluated for the inhibition of Trypanosoma brucei Phosphoglycerate kinase (PGK).

Turning to `CCCNc1nc(N)c2ncn([C@@H]3O[C@H](CO)[C@@H](O)[C@H]3O)c2n1`, the IC50 was found to be 1500 µM.
Under `Nc1nc(NCC(O)c2ccccc2)nc2c1ncn2[C@@H]1O[C@H](CO)[C@@H](O)[C@H]1O` (stereo partly specified) stands 1400 µM.
Then `Nc1nc(NCc2ccccc2)nc2c1ncn2C1O[C@H](CO)[C@@H](O)[C@H]1O` (stereo partly specified), with 3500 µM; and `CCCCCNc1ncnc2c1ncn2[C@@H]1O[C@H](CO)[C@@H](O)[C@H]1O`, with 3000 µM; and `NCCNc1ncnc2c1ncn2C1O[C@H](CO)[C@@H](O)[C@H]1O` (stereo partly specified), with 2500 µM.
Then `Nc1nc(NC2CCCC2)c2ncn(C3O[C@H](CO)[C@@H](O)[C@H]3O)c2n1` (stereo partly specified), with 1500 µM; and `OC[C@H]1OC(n2cnc3c(NCCc4ccccc4)nc(NCCc4ccccc4)nc32)[C@H](O)[C@@H]1O` (stereo partly specified), with 30 µM.
`Nc1nc(NCCCCNc2nc(N)nc3c2ncn3C2O[C@H](CO)[C@@H](O)[C@H]2O)c2ncn(C3O[C@@H](CO)[C@H](O)[C@@H]3O)c2n1` (stereo partly specified): the IC50 was 750 µM.
Under `Nc1nc(NCCCNc2nc(N)nc3c2ncn3C2O[C@H](CO)[C@@H](O)[C@H]2O)c2ncn(C3O[C@@H](CO)[C@H](O)[C@@H]3O)c2n1` (stereo partly specified) stands 50 µM; under `COc1ccc(CCNc2nc(N)nc3c2ncn3C2O[C@H](CO)[C@@H](O)[C@H]2O)cc1` (stereo partly specified), 1500 µM.
Under `Nc1nc(NCCc2ccc(Cl)cc2)c2ncn(C3O[C@H](CO)[C@@H](O)[C@H]3O)c2n1` (stereo partly specified) stands 1400 µM.
Under `Nc1nc(NCCNc2nc(N)nc3c2ncn3C2O[C@H](CO)[C@@H](O)[C@H]2O)c2ncn(C3O[C@@H](CO)[C@H](O)[C@@H]3O)c2n1` (stereo partly specified) stands 500 µM; under `C#CCNc1nc(N)nc2c1ncn2C1O[C@H](CO)[C@@H](O)[C@H]1O` (stereo partly specified), 1500 µM; under `CCCCCNc1nc(N)nc2c1ncn2C1O[C@H](CO)[C@@H](O)[C@H]1O` (stereo partly specified), 2000 µM.
Take `Nc1nc(NCCc2cccc(Cl)c2)c2ncn(C3O[C@H](CO)[C@@H](O)[C@H]3O)c2n1` (stereo partly specified): the IC50 amounted to 1200 µM. This IC50 is about 1.7-fold lower than that of the compound before.
The compound `OC[C@H]1OC(n2cnc3c(NCCc4ccccc4)nc(NCCc4ccc(O)cc4)nc32)[C@H](O)[C@@H]1O` (stereo partly specified) displayed an IC50 of 100 µM. This IC50 lies about 12-fold lower than the previous one.
Under `Nc1nc(NCCc2cccc(O)c2)c2ncn(C3O[C@H](CO)[C@@H](O)[C@H]3O)c2n1` (stereo partly specified) stands 250 µM.
Then `OC[C@H]1OC(n2cnc3c(NCCc4ccc(O)cc4)nc(NCCc4ccccc4)nc32)[C@H](O)[C@@H]1O` (stereo partly specified), with 100 µM.
Under `Cc1ccc(CNc2nc(N)c3ncn(C4O[C@H](CO)[C@@H](O)[C@H]4O)c3n2)cc1` (stereo partly specified) stands 1500 µM; under `COc1cccc(CCNc2nc(N)nc3c2ncn3C2O[C@H](CO)[C@@H](O)[C@H]2O)c1` (stereo partly specified), 1900 µM.
In turn, `CC(CNc1nc(N)nc2c1ncn2C1O[C@H](CO)[C@@H](O)[C@H]1O)c1ccccc1` (stereo partly specified) gave an IC50 of 2900 µM.
`CCNc1nc(N)nc2c1ncn2C1O[C@H](CO)[C@@H](O)[C@H]1O` (stereo partly specified): the IC50 worked out at 3500 µM.
Under `Nc1ccc(CCNc2nc(N)nc3c2ncn3C2O[C@H](CO)[C@@H](O)[C@H]2O)cc1` (stereo partly specified) stands 250 µM.
Then `C=CCNc1nc(N)nc2c1ncn2C1O[C@H](CO)[C@@H](O)[C@H]1O` (stereo partly specified), with 3000 µM; and `Cc1cccc(CNc2nc(N)nc3c2ncn3C2O[C@H](CO)[C@@H](O)[C@H]2O)c1` (stereo partly specified), with 400 µM.
`Cc1ccccc1CNc1nc(N)c2ncn(C3O[C@H](CO)[C@@H](O)[C@H]3O)c2n1` (stereo partly specified) showed a half-maximal inhibitory concentration (IC50) of 1500 µM.
Under `Nc1nc(NCc2ccccc2Cl)nc2c1ncn2C1O[C@H](CO)[C@@H](O)[C@H]1O` (stereo partly specified) stands 2000 µM; under `CC(Nc1nc(N)nc2c1ncn2C1O[C@H](CO)[C@@H](O)[C@H]1O)c1ccccc1` (stereo partly specified), 2900 µM.
Then `Nc1nc(NCCc2ccccc2Cl)c2ncn(C3O[C@H](CO)[C@@H](O)[C@H]3O)c2n1` (stereo partly specified), with 1900 µM; and `Nc1nc(NCc2cccc(Cl)c2)nc2c1ncn2C1O[C@H](CO)[C@@H](O)[C@H]1O` (stereo partly specified), with 800 µM.
Under `Nc1nc(NCCc2ccc(O)c(O)c2)c2ncn(C3O[C@H](CO)[C@@H](O)[C@H]3O)c2n1` (stereo partly specified) stands 250 µM; under `Nc1nc(NCCc2ccc(O)cc2)nc2c1ncn2C1O[C@H](CO)[C@@H](O)[C@H]1O` (stereo partly specified), 500 µM; under `Cc1cccc(CNc2nc(N)c3ncn(C4O[C@H](CO)[C@@H](O)[C@H]4O)c3n2)c1` (stereo partly specified), 1500 µM.
As to `Nc1nc(NCCc2ccccc2)c2ncn(C3O[C@H](CO)[C@@H](O)[C@H]3O)c2n1` (stereo partly specified), the IC50 came to 200 µM.
Consider `Nc1nc(NCc2ccc(Cl)cc2)nc2c1ncn2C1O[C@H](CO)[C@@H](O)[C@H]1O` (stereo partly specified), for which the IC50 amounted to 1400 µM. This IC50 is about 7-fold higher than that of the compound before.
Regarding `Nc1nc(NC2CCCCCC2)c2ncn(C3O[C@H](CO)[C@@H](O)[C@H]3O)c2n1` (stereo partly specified), the half-inhibitory concentration (IC50) was found to be 2500 µM.
Under `NCCCNc1nc(N)nc2c1ncn2C1O[C@H](CO)[C@@H](O)[C@H]1O` (stereo partly specified) stands 4000 µM; under `Nc1nc(NCc2ccco2)c2ncn(C3O[C@H](CO)[C@@H](O)[C@H]3O)c2n1` (stereo partly specified), 1500 µM; under `Nc1nc(NCc2cccc3ccccc23)c2ncn(C3O[C@H](CO)[C@@H](O)[C@H]3O)c2n1` (stereo partly specified), 1900 µM.
Then `CCCCNc1nc(N)nc2c1ncn2C1O[C@H](CO)[C@@H](O)[C@H]1O` (stereo partly specified), with 900 µM; and `Nc1nc(NCc2ccco2)nc2c1ncn2C1O[C@H](CO)[C@@H](O)[C@H]1O` (stereo partly specified), with 1200 µM.
Under `COc1ccccc1CCNc1nc(N)nc2c1ncn2C1O[C@H](CO)[C@@H](O)[C@H]1O` (stereo partly specified) stands 1800 µM.
`Nc1nc(NCc2ccccc2)c2ncn(C3O[C@H](CO)[C@@H](O)[C@H]3O)c2n1` (stereo partly specified) had an IC50 of 600 µM.
Under `Nc1nc(NCCc2ccc(Cl)cc2Cl)nc2c1ncn2C1O[C@H](CO)[C@@H](O)[C@H]1O` (stereo partly specified) stands 600 µM.
Under `Nc1nc(NCCc2ccccc2Cl)nc2c1ncn2C1O[C@H](CO)[C@@H](O)[C@H]1O` (stereo partly specified) stands 2200 µM; under `Nc1nc(NCCCCCNc2nc(N)nc3c2ncn3C2O[C@H](CO)[C@@H](O)[C@H]2O)c2ncn(C3O[C@@H](CO)[C@H](O)[C@@H]3O)c2n1` (stereo partly specified), 1000 µM.
Under `CCCCNc1nc(N)c2ncn(C3O[C@H](CO)[C@@H](O)[C@H]3O)c2n1` (stereo partly specified) stands 1500 µM; under `Cc1ccc(CCNc2nc(N)nc3c2ncn3C2O[C@H](CO)[C@@H](O)[C@H]2O)cc1` (stereo partly specified), 2000 µM.
Turning to `Nc1nc(NCC2CCCCC2)c2ncn(C3O[C@H](CO)[C@@H](O)[C@H]3O)c2n1` (stereo partly specified), the 50% inhibitory concentration (IC50) came to 2500 µM.
Then `COc1ccc(CNc2nc(N)c3ncn(C4O[C@H](CO)[C@@H](O)[C@H]4O)c3n2)cc1` (stereo partly specified), with 1000 µM.
Then `Nc1nc(NC2CCCCCC2)nc2c1ncn2C1O[C@H](CO)[C@@H](O)[C@H]1O` (stereo partly specified), with 3000 µM; and `CC(CNc1nc(N)c2ncn(C3O[C@H](CO)[C@@H](O)[C@H]3O)c2n1)c1ccccc1` (stereo partly specified), with 3500 µM.
Under `CCCNc1nc(N)nc2c1ncn2C1O[C@H](CO)[C@@H](O)[C@H]1O` (stereo partly specified) stands 3000 µM; under `Nc1nc(NCCCc2ccccc2)c2ncn(C3O[C@H](CO)[C@@H](O)[C@H]3O)c2n1` (stereo partly specified), 4000 µM; under `Nc1nc(NCC2CCCO2)nc2c1ncn2C1O[C@H](CO)[C@@H](O)[C@H]1O` (stereo partly specified), 800 µM.
Compound `Nc1ccc(CCNc2nc(N)c3ncn(C4O[C@H](CO)[C@@H](O)[C@H]4O)c3n2)cc1` (stereo partly specified) had a half-maximal inhibitory concentration (IC50) of 500 µM. This IC50 is about 1.6-fold lower than that of the compound before.
`COc1ccc(CCNc2nc(N)nc3c2ncn3C2O[C@H](CO)[C@@H](O)[C@H]2O)cc1O` (stereo partly specified) displayed a half-inhibitory concentration (IC50) of 850 µM. Compared with the last compound, the IC50 is about 1.7-fold higher.
Then `COc1ccccc1CNc1nc(N)c2ncn(C3O[C@H](CO)[C@@H](O)[C@H]3O)c2n1` (stereo partly specified), with 1400 µM.
`COc1cc(CCNc2nc(N)nc3c2ncn3C2O[C@H](CO)[C@@H](O)[C@H]2O)ccc1O` (stereo partly specified) yielded an IC50 of 1500 µM.
Under `Nc1nc(NCCc2ccc(O)cc2)c2ncn(C3O[C@H](CO)[C@@H](O)[C@H]3O)c2n1` (stereo partly specified) stands 130 µM.
Then `Nc1nc(NCCCc2ccccc2)nc2c1ncn2C1O[C@H](CO)[C@@H](O)[C@H]1O` (stereo partly specified), with 1800 µM.
